Source: patent US20220195384A1, “COMPOSITION FOR PROMOTING PRODUCTION OF STEM CELL-DERIVED EXOSOMES AND INCREASING STEMNESS” (BREXOGEN INC., priority 2019, published 2022)
Where no end group is shown, it is not given here.

Legend:
Assay type in all cases: cell-based
[1] = system: primary umbilical cord-derived mesenchymal stem cells; experiment: Stem cell proliferation (CCK, absorbance 450 nm) after pretreatment; conditions: 24 h culture, CCK 4 h
Method: (§1) In a culture medium [high glucose DMEM (Gibco, Cat no. 11995-065); 10% fetal bovine serum (HyClone), 1% MEM non-essential amino acids solution (100×) (Gibco, Cat no. 11140-050)] containing 20 nM of exendin-4, primary umbilical cord-derived mesenchymal stem cells (ATCC No. PCS-500-010; Lot No. 63822428) were cultured for one week.
(§2) In a culture medium [high glucose DMEM (Gibco, Cat no. 11995-065); 10% fetal bovine serum (HyClone), 1% MEM non-essential amino acids solution (100×) (Gibco, Cat no. 11140-050)] containing 10 nM of PMA, primary umbilical cord-derived mesenchymal stem cells (ATCC No. PCS-500-010; Lot No. 63822428) were cultured for one week.
(§3) In a culture medium [high glucose DMEM (Gibco, Cat no. 11995-065); 10% fetal bovine serum (HyClone), 1% MEM non-essential amino acids solution (100×) (Gibco, Cat no. 11140-050)] containing 10 ng/mL interferon-γ, primary umbilical cord-derived mesenchymal stem cells (ATCC No. PCS-500-010; Lot No. 63822428) were cultured for one week.
(§4) In a culture medium [high glucose DMEM (Gibco, Cat no. 11995-065); 10% fetal bovine serum (HyClone), 1% MEM non-essential amino acids solution (100×) (Gibco, Cat no. 11140-050)] containing 10 μM of tetrandrine, primary umbilical cord-derived mesenchymal stem cells (ATCC No. PCS-500-010; Lot No. 63822428) were cultured for one week.
(§5) In a culture medium [high glucose DMEM (Gibco, Cat no. 11995-065); 10% fetal bovine serum (HyClone), 1% MEM non-essential amino acids solution (100×) (Gibco, Cat no. 11140-050)] containing 10 μg/mL hyaluronic acid, primary umbilical cord-derived mesenchymal stem cells (ATCC No. PCS-500-010; Lot No. 63822428) were cultured for one week.
(§6) In a culture medium [high glucose DMEM (Gibco, Cat no. 11995-065); 10% fetal bovine serum (HyClone), 1% MEM non-essential amino acids solution (100×) (Gibco, Cat no. 11140-050)] containing 30 nM of substance P, primary umbilical cord-derived mesenchymal stem cells (ATCC No. PCS-500-010; Lot No. 63822428) were cultured for one week.
(§7) In a culture medium [high glucose DMEM (Gibco, Cat no. 11995-065); 10% fetal bovine serum (HyClone), 1% MEM non-essential amino acids solution (100×) (Gibco, Cat no. 11140-050)] containing 10 nM of resveratrol, primary umbilical cord-derived mesenchymal stem cells (ATCC No. PCS-500-010; Lot No. 63822428) were cultured for one week.
(§8) In a culture medium [high glucose DMEM (Gibco, Cat no. 11995-065); 10% fetal bovine serum (HyClone), 1% MEM non-essential amino acids solution (100×) (Gibco, Cat no. 11140-050)] containing 10 μM of lanifibranor, primary umbilical cord-derived mesenchymal stem cells (ATCC No. PCS-500-010; Lot No. 63822428) were cultured for one week.
(§9) Mesenchymal stem cells and the exendin-4-pretreated mesenchymal stem cells of the Example were each seeded at a density of 3,000 cells/well into 96-well plates containing 100 μL of a culture medium [high glucose DMEM (Gibco, Cat no. 11995-065), 10% fetal bovine serum (HyClone), 1% MEM non-essential amino acids solution (100×) (Gibco, Cat no. 11140-050)] per well and cultured for 24 hours in a CO2 incubator. Then, CCK solution (10 μL/well) was added, and incubation was continued for 4 hours in the CO2 incubator, followed by reading absorbance at a wavelength of 450 nm (420-480 nm) to determine proliferation.
as §9, with “PMA-pretreated” for “exendin-4-pretreated”, “proliferation. […]” for “proliferation.”

[2] = system: primary umbilical cord-derived mesenchymal stem cells; experiment: Content of exosomal RNA (NanoDrop); conditions: for Exosomal RNA, yield per 10^6 cells: then 72 h exosome-free FBS medium
Method: as §1
(§10) After completion of culturing, the mesenchymal stem cells pretreated with exendin-4 were washed and additionally cultured for 72 hours in a culture medium supplemented with 10% fetal bovine serum (FBS) free of exosomes. The reason of employing exosome-free FBS was to prevent FBS-derived exosomes other than those secreted from the cells from being incorporated because generally used FBS contained a large amount of exosomes derived from bovine serum.
(§11) After 72 hours of culturing, the culture medium in which the pretreated mesenchymal stem cells were cultured was taken and centrifuged at 300×g for 10 min to remove residual cells and cell debris. The supernatant was filtered through a 0.22 μm filter, followed by centrifugation at 10,000×g and 4° C. for 70 min in a high-speed centrifuge. The supernatant thus obtained was subjected again to ultracentrifugation at 100,000×g and 4° C. for 90 min. The exosomes obtained as a pellet were diluted in PBS (phosphate buffered saline) before use in the following experiments.
as §2
(§12) After completion of culturing, the mesenchymal stem cells pretreated with PMA were washed and additionally cultured for 72 hours in a culture medium supplemented with 10% fetal bovine serum (FBS) free of exosomes. The reason of employing exosome-free FBS was to prevent FBS-derived exosomes other than those secreted from the cells from being incorporated because generally used FBS contained a large amount of exosomes derived from bovine serum.
as §3
(§13) After completion of culturing, the mesenchymal stem cells pretreated with interferon-γ were washed and additionally cultured for 72 hours in a culture medium supplemented with 10% fetal bovine serum (FBS) free of exosomes. The reason of employing exosome-free FBS was to prevent FBS-derived exosomes other than those secreted from the cells from being incorporated because generally used FBS contained a large amount of exosomes derived from bovine serum.
as §4
(§14) After completion of culturing, the mesenchymal stem cells pretreated with tetrandrine were washed and additionally cultured for 72 hours in a culture medium supplemented with 10% fetal bovine serum (FBS) free of exosomes. The reason of employing exosome-free FBS was to prevent FBS-derived exosomes other than those secreted from the cells from being incorporated because generally used FBS contained a large amount of exosomes derived from bovine serum. […]

[3] = system: primary umbilical cord-derived mesenchymal stem cells; experiment: Number of exosomes by nanoparticle tracking assay (NanoSight NS300); conditions: for No. of exosome particles, yield per 10^6 cells: then 72 h exosome-free FBS medium
Method: as §1, §10, §11, §2, §12, §3, §13, §4, §14

[4] = system: primary umbilical cord-derived mesenchymal stem cells; experiment: Stem cell stemness: colony formation (CFU-F, crystal violet) after pretreatment; conditions: for colonies formed (each 50 or more cells): 1,000 cells/dish, 21 days; for CFU-F increase: vs non-treated
Method: as §1, §2, §3, §4, §5, §6, §7, §8
Mesenchymal stem cells and the exendin-4-pretreated mesenchymal stem cells of the Example were each seeded at a density of 1,000 cells/dish into 100-mm cell culture dishes containing […] of a culture medium [high glucose DMEM (Gibco, Cat no. 11995-065), 10% fetal bovine serum (HyClone), 1% MEM non-essential amino acids solution (100×) (Gibco, Cat no. 11140-050)] per dish and cultured for 21 days. The cell-attached dishes were washed twice with PBS, followed by fixation with 95% methanol at room temperature for about 2 min. The fixed cells were washed three times with PBS and stained with 0.5% crystal violet [(sigma, C-3886, USA) […], methanol 100 ml] for 5 min. After water washing and drying at room temperature, colonies, each composed of 50 or more cells, were counted for comparison.
Mesenchymal stem cells and the PMA-pretreated mesenchymal stem cells of the Example were each seeded at a density of 1,000 cells/dish into 100-mm cell culture dishes containing […] of a culture medium [high glucose DMEM (Gibco, Cat no. 11995-065), 10% fetal bovine serum (HyClone), 1% MEM non-essential amino acids solution (100×) (Gibco, Cat no. 11140-050)] per dish and cultured for 21 days. The cell-attached dishes were washed twice with PBS, followed by fixation with 95% methanol at room temperature for about 2 min. […]

[5] = system: primary umbilical cord-derived mesenchymal stem cells; experiment: Content of exosomal protein (Bradford analysis, 595 nm); conditions: for Exosomal protein, yield per 10^6 cells: then 72 h exosome-free FBS medium
Method: as §1, §10, §11, §2, §12, §3, §13, §4, §14

[6] = 20 nM exendin-4 pretreatment one week
[7] = 30 nM substance P pretreatment one week

Substance: exendin-4
- increase in proliferation relative to non-treated mesenchymal stem cells [1, 6]: about 340%
- proliferation ratio relative to non-treated mesenchymal stem cells (1) [1, 6]: 3.4
- fold greater exosomal RNA than non-treated mesenchymal stem cells [2, 6]: about 5.6 fold
- Exosomal RNA, yield per 10^6 cells ([2]; 20 nM exendin-4 pretreatment one week, non-treated 31.00): 174.34 ng
- fold more exosomes than non-treated mesenchymal stem cells [3, 6]: about 5.85 fold
- No. of exosome particles, yield per 10^6 cells ([3]; 20 nM exendin-4 pretreatment one week, non-treated 2.30): 13.45 10^9
- colonies formed (each 50 or more cells) ([4]; 20 nM exendin-4 pretreatment one week, non-treated 28.6): 185 colonies
- CFU-F increase [4, 6]: about 647%
- fold greater exosomal proteins than non-treated mesenchymal stem cells [5, 6]: about 5.4 fold
- Exosomal protein, yield per 10^6 cells ([5]; 20 nM exendin-4 pretreatment one week, non-treated 2.00): 10.69 μg

Substance: substance P (RPKPQQFFGLM; not fully specified; ends and bridges not checked; UniProt P20366 58-68, looked up) [undecapeptide of the tachykinin neuropeptide family acting on NK1 receptor; SubsP MSC-Exo = exosomes of treated mesenchymal stem cells]
- increase in proliferation relative to non-treated mesenchymal stem cells [1, 7]: about 290%
- proliferation ratio relative to non-treated mesenchymal stem cells (1) [1, 7]: 2.9
- fold greater exosomal RNA than non-treated mesenchymal stem cells [2, 7]: about 4.9 fold
- Exosomal RNA, yield per 10^6 cells ([2]; 30 nM substance P pretreatment one week, non-treated 31.0): 150.84 ng
- fold more exosomes than non-treated mesenchymal stem cells [3, 7]: about 4.3 fold
- No. of exosome particles, yield per 10^6 cells ([3]; 30 nM substance P pretreatment one week, non-treated 2.3): 9.93 10^9
- colonies formed (each 50 or more cells) ([4]; 30 nM substance P pretreatment one week, non-treated 28.7): 116 colonies
- CFU-F increase [4, 7]: about 404%
- fold greater exosomal proteins than non-treated mesenchymal stem cells [5, 7]: about 5.2 fold
- Exosomal protein, yield per 10^6 cells ([5]; 30 nM substance P pretreatment one week, non-treated 2.0): 10.37 ug
